US20240408169A1 (priority 2023, published 2024)
Where two headings read alike, the source gives them in different places. *1 amine or outer side, *2 acyl side, *3 side chain or, on linkers, in order; H or OH if unused. Where a SMILES comes first, the peptide text is derived from it. Bridges are numbered along the chain shown (N, C = ends). [ ]: non-standard residue; d: D form. The star is where a group is joined. X205 = CC(C)C(=O)N1[C@@H]2COC[C@H]1C=C(c1ccc(F)cc1C[C@@H](C(=O)[*:2])N(C)[*:1])C2; NMePhe(2-(4-MorPh),5-Cl) = CN[C@@H](Cc1cc(Cl)ccc1-c1ccc(N2CCOCC2)cc1)C(=O)O; X144 = CN([C@@H](Cc1cc(Cl)ccc1-c1ccc(N2CC(C)(F)C2)nc1)C(=O)[*:2])[*:1]; X42 = CN([C@@H](Cc1cc(Cl)ccc1-c1cnn(S(=O)(=O)C2CC2)c1)C(=O)[*:2])[*:1]; X209 = CN([C@@H](Cc1cc(Cl)ccc1-c1cnc2nn(C)cc2c1)C(=O)[*:2])[*:1]; X26 = CN([C@@H](Cc1cc(F)ccc1-c1cnn(C2CC2)c1)C(=O)[*:2])[*:1]; NMehhhLys(Me) = CN([C@@H](CCCCCCCN(C)[*:3])C(=O)[*:2])[*:1]; X139 = Cc1[nH]ncc1-c1ccc(Cl)cc1C[C@@H](C(=O)[*:2])N(C)[*:1]; X180 = CN([C@@H](Cc1cc(F)ccc1-c1cnn2c1CCC2)C(=O)[*:2])[*:1]; X206 = CN([C@@H](Cc1cc(Cl)cnc1Cc1cnn(C)c1)C(=O)[*:2])[*:1]; X44 = Cc1nnc(-c2ccc(Cl)cc2C[C@@H](C(=O)[*:2])N(C)[*:1])o1; NMe(hhhLys) = CN([C@@H](CCCCCCCN[*:3])C(=O)[*:2])[*:1]; NMe3Pal(2-OMe,5-Cl) = CN[C@@H](Cc1cc(Cl)cnc1OC)C(=O)O; Oxane2carbonyl(2R-CF3) = O=C([C@@]1(C(F)(F)F)CCCCO1)*; Cyclobutanecarbonyl(1-CF3) = O=C(C1(C(F)(F)F)CCC1)*; Cyclopropanecarbonyl(1-CF3) = O=C(C1(C(F)(F)F)CC1)*; cBuCO(3,3-F2-1-CF3) = O=C(C1(C(F)(F)F)CC(F)(F)C1)*; NMePhe(2,5-Cl2) = CN[C@@H](Cc1cc(Cl)ccc1Cl)C(=O)O; X133 = Cc1ncc(Cl)cc1C[C@@H](C(=O)[*:2])N(C)[*:1]; X4 = Cc1ccc(Cl)cc1C[C@@H](C(=O)[*:2])N(C)[*:1]; Pro(trans-4-F) = O=C(O)[C@@H]1C[C@@H](F)CN1; Gly(cPr) = N[C@H](C(=O)O)C1CC1

Key:
NCI-H1048 cells = assay: MTT proliferation assay, NCI-H1048; assay type: cell-based; conditions: 5 days compound exposure, 1:3 serial dilution starting at 10 μM;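 also: Dose-response in 96-well plates over 8 or 10 concentration points, with exposure spanning 3-4 cell doublings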
CyclinB1/CDK1 = biological target: T1, CyclinB1/CDK1 (Homo sapiens, UniProt P14635); assay: Fluorescence Polarization (FP) competitive binding assay, Cyclin B1/Cdk1;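 also: fluorescence polarization read after equilibration at room temperature, with IC50 taken from serially diluted dose-response curves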
T1 construct: purchased Eurofins, discovery 14-450

CyclinE1/CDK2 = biological target: T2, CyclinE1/CDK2 (Homo sapiens, UniProt P24864); assay: Fluorescence Polarization (FP) competitive binding assay, Cyclin E1/Cdk2;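 also: readings taken after two-hour equilibration at room temperature in HEPES buffer with NaCl, DTT, NP-40 and BSA, IC50 fitted from eight-concentration serial dilution series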
T2 construct: purchased Eurofins, discovery 14-475

CyclinA2/CDK2 = biological target: T3, CyclinA2/CDK2 (Homo sapiens, UniProt P20248); assay: Fluorescence Polarization (FP) competitive binding assay, Cyclin A2/Cdk2;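 also: plates equilibrated two hours at room temperature before polarization reading, IC50 fitted from eight-concentration compound titration curves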
T3 construct: purchased CRELUX Protein Services

OVCAR3 cells = assay: MTT proliferation assay, OVCAR3; assay type: cell-based; conditions: 5 days compound exposure, 1:3 serial dilution starting at 10 μM;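 also: compound given as an 8- or 10-point series, one day after plating, with exposure covering roughly 3-4 cell doublings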
[1] = 10 nM Cyclin B1/Cdk1, 2 nM FAM probe; average of 2-3 independent experiments; read-out: Cyclin B FP IC50
[2] = 10 nM Cyclin E1/Cdk2, 2 nM FAM probe, average of 2-3 independent experiments, read-out: Cyclin E FP IC50
[3] = 8 nM Cyclin A2/Cdk2, 2 nM FAM probe, average of 2-3 independent experiments, read-out: Cyclin A FP IC50
[4] = read-out: Cyclin B FP IC50; 10 nM Cyclin B1/Cdk1, 2 nM FAM probe; average of 2-3 independent experiments

SMILES	GI50 (NCI-H1048 cells)	IC50 (CyclinB1/CDK1; [1])	IC50 (CyclinE1/CDK2; [2])	IC50 (CyclinA2/CDK2; [3])	GI50 (OVCAR3 cells)	IC50 (CyclinB1/CDK1; [4])	IC50 (CyclinE1/CDK2)	IC50 (CyclinA2/CDK2; read-out: Cyclin A FP IC50, 8 nM Cyclin A2/Cdk2, 2 nM FAM probe, average of 2-3 independent experiments)	IC50 (CyclinA2/CDK2)
CC(C)C[C@@H]1NC(=O)[C@@H](N(C)C(=O)[C@@H](NC(=O)[C@@H]2C[C@@H](F)CN2C(=O)C2(C(F)(F)F)CC(F)(F)C2)C2CC2)CC=CCCCCNC(=O)[C@H](Cc2cc(Cl)cnc2OC2CC2)N(C)C1=O (single isomer, unassigned) [Example 102-P2]	0.08 µM	0.02 µM	0.31 µM	0.12 µM	0.13 µM	–	–	–	–
CC(C)C[C@@H]1NC(=O)[C@@H](N(C)C(=O)[C@@H](NC(=O)[C@@H]2C[C@@H](F)CN2C(=O)C2(C(F)(F)F)CC(F)(F)C2)C2CC2)CCCCCCCN(C)C(=O)[C@H](Cc2cc(Cl)ccc2-c2cnn(S(=O)(=O)C3CC3)c2)N(C)C1=O [Example 254] ({cBuCO(3,3-F2-1-CF3)}-[Pro(trans-4-F)][Gly(cPr)][NMehhhLys(Me)]L[X42]; lactam 3-C)	0.02 µM	0.02 µM	0.97 µM	0.03 µM	0.02 µM	–	–	–	–
COc1ncc(Cl)cc1C[C@H]1C(=O)NCCCCCCC[C@H](N(C)C(=O)[C@@H](NC(=O)[C@@H]2C[C@@H](F)CN2C(=O)C2(C(F)(F)F)CC(F)(F)C2)C2CC2)C(=O)N[C@@H](CC(C)C)C(=O)N1C [Example 275] ({cBuCO(3,3-F2-1-CF3)}-[Pro(trans-4-F)][Gly(cPr)][NMe(hhhLys)]L[NMe3Pal(2-OMe,5-Cl)]; lactam 3-C)	0.01 µM	0.02 µM	0.23 µM	0.05 µM	0.01 µM	–	–	–	–
Cc1nnc(-c2ccc(Cl)cc2C[C@H]2C(=O)N(C)CCCCCCC[C@H](N(C)C(=O)[C@@H](NC(=O)[C@@H]3C[C@@H](F)CN3C(=O)C3(C(F)(F)F)CCC3)C3CC3)C(=O)N[C@@H](CC(C)C)C(=O)N2C)o1 [Example 163] ({Cyclobutanecarbonyl(1-CF3)}-[Pro(trans-4-F)][Gly(cPr)][NMehhhLys(Me)]L[X44]; lactam 3-C)	0.01 µM	0.02 µM	0.1 µM	0.02 µM	0.01 µM	–	–	–	–
CC(C)C[C@@H]1NC(=O)[C@@H](N(C)C(=O)[C@@H](NC(=O)[C@@H]2C[C@@H](F)CN2C(=O)C2(C(F)(F)F)CC(F)(F)C2)C2CC2)CCCCCCCNC(=O)[C@H](Cc2cc(F)ccc2-c2cnn(C3CC3)c2)N(C)C1=O [Example 213] ({cBuCO(3,3-F2-1-CF3)}-[Pro(trans-4-F)][Gly(cPr)][NMe(hhhLys)]L[X26]; lactam 3-C)	0.01 µM	0.02 µM	0.19 µM	0.03 µM	0.01 µM	–	–	–	–
Cc1ccc(Cl)cc1C[C@H]1C(=O)N(C)CCCCCCC[C@H](N(C)C(=O)[C@@H](NC(=O)[C@@H]2C[C@@H](F)CN2C(=O)C2(C(F)(F)F)CC(F)(F)C2)C2CC2)C(=O)N[C@@H](CC(C)C)C(=O)N1C [Example 263] ({cBuCO(3,3-F2-1-CF3)}-[Pro(trans-4-F)][Gly(cPr)][NMehhhLys(Me)]L[X4]; lactam 3-C)	0.03 µM	0.02 µM	0.2 µM	0.03 µM	0.04 µM	–	–	–	–
CC(C)C[C@@H]1NC(=O)[C@@H](N(C)C(=O)[C@@H](NC(=O)[C@@H]2C[C@@H](F)CN2C(=O)C2(C(F)(F)F)CC(F)(F)C2)C2CC2)CCCCCCCNC(=O)[C@H](Cc2cc(F)ccc2C2=C[C@@H]3COC[C@H](C2)N3C(=O)C(C)C)N(C)C1=O [Example 325] ({cBuCO(3,3-F2-1-CF3)}-[Pro(trans-4-F)][Gly(cPr)][NMe(hhhLys)]L[X205]; lactam 3-C)	0.01 µM	0.02 µM	0.3 µM	0.02 µM	0.01 µM	–	–	–	–
CC(C)C[C@@H]1NC(=O)[C@@H](N(C)C(=O)[C@@H](NC(=O)[C@@H]2C[C@@H](F)CN2C(=O)C2(C(F)(F)F)CC(F)(F)C2)C2CC2)CC=CCCCCN(C)C(=O)[C@H](Cc2cc(Cl)ccc2-c2cncnc2)N(C)C1=O [Example 30]	0.13 µM	0.02 µM	5.05 µM	0.24 µM	0.14 µM	–	–	–	–
CC(C)C[C@@H]1NC(=O)[C@@H](N(C)C(=O)[C@H](CCC(=O)O)NC(=O)[C@@H]2C[C@@H](F)CN2C(=O)C2(C(F)(F)F)CC(F)(F)C2)CCCCCCCN(C)C(=O)[C@H](Cc2cc(Cl)ccc2-c2ccc(N3CCOCC3)cc2)N(C)C1=O [Example 418] ({cBuCO(3,3-F2-1-CF3)}-[Pro(trans-4-F)]E[NMehhhLys(Me)]L[NMePhe(2-(4-MorPh),5-Cl)]; lactam 3-C)	1.42 µM	0.02 µM	5.26 µM	0.12 µM	1.15 µM	–	–	–	–
CC(C)C[C@@H]1NC(=O)[C@@H](N(C)C(=O)[C@@H](NC(=O)[C@@H]2C[C@@H](F)CN2C(=O)C2(C(F)(F)F)CC(F)(F)C2)C2CC2)CCCCCCCN(C)C(=O)[C@H](Cc2cc(Cl)ccc2-c2cnc3nn(C)cc3c2)N(C)C1=O [Example 249] ({cBuCO(3,3-F2-1-CF3)}-[Pro(trans-4-F)][Gly(cPr)][NMehhhLys(Me)]L[X209]; lactam 3-C)	0.01 µM	–	–	–	0.01 µM	0.02 µM	0.59 µM	0.02 µM	–
CC(C)C[C@@H]1NC(=O)[C@@H](N(C)C(=O)[C@@H](NC(=O)[C@@H]2C[C@@H](F)CN2C(=O)C2(C(F)(F)F)CC(F)(F)C2)C2CC2)CCCCCCCN(C)C(=O)[C@H](Cc2cc(F)ccc2-c2cnn3c2CCC3)N(C)C1=O [Example 148] ({cBuCO(3,3-F2-1-CF3)}-[Pro(trans-4-F)][Gly(cPr)][NMehhhLys(Me)]L[X180]; lactam 3-C)	0.01 µM	0.02 µM	0.31 µM	0.03 µM	0.01 µM	–	–	–	–
CC[C@H](NC(=O)[C@@H]1C[C@@H](F)CN1C(=O)C1(C(F)(F)F)CC1)C(=O)N[C@H]1CC=CCCCCN(C)C(=O)[C@H](Cc2cc(Cl)ccc2Cl)N(C)C(=O)[C@H](CC(C)C)NC1=O [Example 13]	0.07 µM	0.02 µM	0.1 µM	0.1 µM	0.24 µM	–	–	–	–
Cc1ncc(Cl)cc1C[C@H]1C(=O)N(C)CCCCCCC[C@H](N(C)C(=O)[C@@H](NC(=O)[C@@H]2C[C@@H](F)CN2C(=O)C2(C(F)(F)F)CC(F)(F)C2)C2CC2)C(=O)N[C@@H](CC(C)C)C(=O)N1C [Example 322] ({cBuCO(3,3-F2-1-CF3)}-[Pro(trans-4-F)][Gly(cPr)][NMehhhLys(Me)]L[X133]; lactam 3-C)	0.03 µM	0.02 µM	0.53 µM	0.08 µM	0.06 µM	–	–	–	–
Cc1[nH]ncc1-c1ccc(Cl)cc1C[C@H]1C(=O)N(C)CCCCCCC[C@H](N(C)C(=O)[C@@H](NC(=O)[C@@H]2C[C@@H](F)CN2C(=O)C2(C(F)(F)F)CC(F)(F)C2)C2CC2)C(=O)N[C@@H](CC(C)C)C(=O)N1C [Example 211] ({cBuCO(3,3-F2-1-CF3)}-[Pro(trans-4-F)][Gly(cPr)][NMehhhLys(Me)]L[X139]; lactam 3-C)	0.02 µM	–	–	–	0.03 µM	0.02 µM	1.11 µM	–	0.05 µM
CC(C)C[C@@H]1NC(=O)[C@@H](N(C)C(=O)[C@@H](NC(=O)[C@@H]2C[C@@H](F)CN2C(=O)[C@@]2(C(F)(F)F)CCCCO2)C2CC2)CCCCCCCN(C)C(=O)[C@H](Cc2cc(Cl)cnc2Cc2cnn(C)c2)N(C)C1=O [Example 332] ({Oxane2carbonyl(2R-CF3)}-[Pro(trans-4-F)][Gly(cPr)][NMehhhLys(Me)]L[X206]; lactam 3-C)	0.01 µM	0.02 µM	0.1 µM	0.02 µM	0.01 µM	–	–	–	–
CC(C)C[C@@H]1NC(=O)[C@@H](N(C)C(=O)[C@@H](NC(=O)[C@@H]2C[C@@H](F)CN2C(=O)C2(C(F)(F)F)CCC2)C2CC2)CC=CCCCCNC(=O)[C@H](Cc2cc(Cl)ccc2Oc2ncccn2)N(C)C1=O (single isomer, unassigned) [Example 156-P2]	0.09 µM	0.02 µM	0.24 µM	0.35 µM	0.1 µM	–	–	–	–
CC(C)C[C@@H]1NC(=O)[C@@H](N(C)C(=O)[C@@H](NC(=O)[C@@H]2C[C@@H](F)CN2C(=O)C2(C(F)(F)F)CC(F)(F)C2)C2CC2)CCCCCCCN(C)C(=O)[C@H](Cc2cc(Cl)ccc2-c2ccc(N3CC(C)(F)C3)nc2)N(C)C1=O [Example 402] ({cBuCO(3,3-F2-1-CF3)}-[Pro(trans-4-F)][Gly(cPr)][NMehhhLys(Me)]L[X144]; lactam 3-C)	0.04 µM	0.02 µM	0.96 µM	0.02 µM	0.01 µM	–	–	–	–
CC(C)C[C@@H]1NC(=O)[C@@H](N(C)C(=O)[C@@H](NC(=O)[C@@H]2C[C@@H](F)CN2C(=O)C2(C(F)(F)F)CC2)C2CC2)CCCCCCCNC(=O)[C@H](Cc2cc(Cl)ccc2Cl)N(C)C1=O [Example 9] ({Cyclopropanecarbonyl(1-CF3)}-[Pro(trans-4-F)][Gly(cPr)][NMe(hhhLys)]L[NMePhe(2,5-Cl2)]; lactam 3-C)	0.08 µM	0.02 µM	0.4 µM	0.25 µM	0.11 µM	–	–	–	–
CC(=O)N1CC=C(c2ccc(F)cc2C[C@H]2C(=O)N(C)CCCCC=CC[C@H](N(C)C(=O)[C@@H](NC(=O)[C@@H]3C[C@@H](F)CN3C(=O)C3(C(F)(F)F)CCC3)C3CC3)C(=O)N[C@@H](CC(C)C)C(=O)N2C)CC1 [Example 42]	0.07 µM	0.02 µM	0.44 µM	0.04 µM	0.21 µM	–	–	–	–
